From publication PMC12649483, “Novel Chalcone Derivatives as Anti-Leishmania infantum Agents with Potential Synergistic Activity and In Silico Insights” (Antibiotics, 2025)
“Also recorded” adds a separate entry of the source.

Columns and labels:
[1] = system: L. infantum axenic amastigotes; experiment: Synergistic activity of 4b with AmB (Chou-Talalay) against axenic amastigotes; type: cell-based, Leishmania infantum; conditions: of each drug within the 1:5 AmB:4b combination
Procedure: The nature of the drug interaction (synergistic, additive, or antagonistic) was evaluated using the Chou–Talalay method implemented in CompuSyn software (ComboSyn Incorporated, version 1.0.1, 2006–2023). This approach calculates the Combination Index (CI) based on dose–response data fitted to the median-effect equation, with parameters including Dm (median-effect dose), m (slope of the dose–effect curve), and r (linear correlation coefficient). To characterize the interaction at different effect levels, CI values were determined for the following effective doses: ED50, ED75, and ED90, corresponding to 50%, 75%, and 90% inhibition of cell viability, respectively. Interactions were interpreted as synergistic when CI < 1, additive when CI = 1, and antagonistic when CI > 1. Additionally, the dose reduction index (DRI) was calculated to estimate the amount of dose reduction that could be achieved for each drug in combination while maintaining the same level of efficacy; […]

human PBMCs = experiment: Cytotoxicity (MTT) in peripheral blood mononuclear cells; type: cell-based
Procedure: (§1) For the PBMCs assay, blood samples from three healthy volunteers were processed using Ficoll density gradient centrifugation (980× g) for 20 min at 25 °C. The PBMCs layer was collected, washed with sterile 1× PBS (300× g, 10 min, 4 °C), and resuspended in RPMI medium (Sigma-Aldrich) supplemented with 10% FBS and 1% antibiotic. Adjusted PBMCs were plated in 96-well plates and incubated with serial dilutions of the compounds (1000 to 7.8 µM) and AmB (100 to 0.78 µM) for 24 h (37 °C, 5% CO2). MTT was then added for 4 h, followed by centrifugation (300× g, 10 min) at 4 °C, supernatant removal, and DMSO addition for spectrophotometric reading at 540 nm.

[2] = as above; type: cell-based, human; conditions: human, peripheral blood mononuclear cells (PBMCs), 24 h; for CC50 at 24 h: PBMCs, MTT; for viability at 24 h, 250 µM: at 250 μM; for viability at 24 h, 500 µM: at 500 μM
Procedure: as §1

human erythrocytes = experiment: Hemolytic activity in human erythrocytes; type: cell-based; conditions: for hemolytic activity (in words): tested concentrations 100–0.78 µM
Procedure: The hemolytic activity of the compounds 4a–b was evaluated using an adaptation of the method described by Van de Ven (2012). Blood samples were adjusted to a 5% erythrocyte concentration, taking into account the hematocrit differences between males (40–50% ≈ 45%) and females (35–45% ≈ 40%). Compounds were added to 96-well plates at serial dilutions (100 to 0.78 µM), while AmB was tested at concentrations ranging from 400 to 3.12 µM as a reference. After 1 h of incubation at 37 °C in a 5% CO2 incubator, 100 µL of phosphate-buffered saline (PBS) was added to each well. Plates were centrifuged (112× g, 10 min, 25 °C), and supernatants were transferred to a mirrored 96-well plate. Hemoglobin release, reflecting erythrocyte lysis, was quantified by measuring absorbance at 540 nm. The assay was performed in three independent experiments, with results expressed as mean hemolytic concentration (HC50). Ultrapure water (Direct-Q UV, Guyancourt, France) served as the positive control (100% hemolysis).

[3] = system: L. infantum axenic amastigotes; experiment: In vitro leishmanicidal activity (MTT) in axenic amastigote forms; type: cell-based, Leishmania infantum; conditions: for IC50: axenic amastigotes, 24 h treatment, MTT
Procedure: (§2) Promastigote forms of L. infantum [IOC/L0579 (MHOM/BR/1974/PP75)] were cultured in Schneider’s medium (pH 7.0), supplemented with 20% fetal bovine serum (FBS), 1% human male urine, and 1% antibiotic solution (penicillin 200 U/mL and streptomycin 0.1 mg/mL), and maintained at 26 ± 1 °C (B.O.D SL 200—SOLAB, Piracicaba, SP, BR). The generation of extracellular axenic amastigote forms of L. infantum was based on protocols previously described by Debrabant et al. (2004), with modifications that included the use of Schneider’s medium adjusted to pH 5.5 and incubation at 37 °C (CO2 Series 3517-2, Cornelius, OR, USA).
(§3) In 96-well plates, initial screening was performed with serial dilutions (400 to 3.12 μM) of compounds 3a–c and 4a–c in duplicate. […] AmB was used as a positive control due to its established leishmanicidal activity, tested at concentrations ranging from 10 to 0.078 μM. Following 72 h-treatment of promastigotes and 24 h-treatment of amastigotes (accounting for the stationary phase culture characteristics), MTT was added for 4 h, followed by overnight incubation with sodium dodecyl sulfate (SDS) for spectrophotometric (Biotek model ELx800, Winooski, VT, USA) reading at 540 nm.

[4] = system: L. infantum promastigotes; experiment: In vitro leishmanicidal activity (MTT) in promastigote forms; type: cell-based, Leishmania infantum; conditions: for IC50: 72 h treatment, MTT
Procedure: as §2
The antileishmanial activity of compounds against metacyclic promastigote populations was assessed using the MTT (ACROS, Livingston, NJ, USA) assay for cell viability analysis. During testing, L. infantum (IOC/L0579) cultures were maintained in vitro in supplemented Schneider’s (Sigma-Aldrich, St. Louis, MO, USA) medium (pH 7.0) at 26 ± 1 °C in a biological oxygen demand (BOD) incubator.
as §3

[5] = at the highest concentration, 72 h
[6] = at the lowest doses / lower concentrations, 72 h

| dose reduction index (DRI) at IC50 [1] | SMILES | CC50 at 24 h [2] [µM] | IC50 ([3]; Leishmania infantum) [µM] | IC50 ([4]; Leishmania infantum) [µM] | viability at 24 h, 250 µM ([2]; read-out: PBMC viability) [%] | viability at 24 h, 500 µM ([2]; read-out: PBMC viability) [%] | hemolytic activity (in words) (human erythrocytes) | promastigote viability [4, 5] [%] | promastigote viability [4, 6] [%] | further results |
| --- | --- | --- | --- | --- | --- | --- | --- | --- | --- | --- |
| 2.87 | C[C@@H]1[C@H](O)[C@@H](C)/C=C/C=C/C=C/C=C/C=C/C=C/C=C/[C@H](O[C@@H]2O[C@H](C)[C@@H](O)[C@H](N)[C@@H]2O)C[C@@H]2O[C@](O)(C[C@@H](O)C[C@@H](O)[C@H](O)CC[C@@H](O)C[C@@H](O)CC(=O)O[C@H]1C)C[C@H](O)[C@H]2C(=O)O [AmB, Amphotericin B, reference compound] | 29.9 | 0.89 | 0.87 |  |  |  |  |  | CC50 (human PBMCs; PBMCs, 24 h, MTT): 29.9 µM; viability at 24 h, 25 µM ([2]; at 25 μM, read-out: PBMC viability): 61.9%; viability at 24 h, 50 µM ([2]; at 50 μM, read-out: PBMC viability): 40.8%; viability at 24 h, 100 µM ([2]; at 100 μM, read-out: PBMC viability): 30.4%; 50% hemolytic concentration (HC50) (human erythrocytes; 5% erythrocytes, 1 h, 37 °C): 193.4 µM |
|  | Cc1ccc(C(=O)/C=C/c2ccc(OCC(=O)NC3CCCCC3)cc2)cc1 [Compound 4a, (E)-N-Cyclohexyl-2-(4-(3-oxo-3-p-tolylprop-1-enyl)phenoxy)acetamide] | 157 | 19.7 | 12.9 | 33 | 33.4 | no hemolytic activity | 20.77 | 100 | viability at 24 h, 125 µM ([2]; at 125 μM, read-out: PBMC viability): 61.2%; viability at 12.5 µM ([3]; Leishmania infantum, at 12.5 µM, 24 h): 80.2%; viability at 25 µM ([3]; Leishmania infantum, at 25 µM, 24 h): 30.8%; viability at 50 µM ([3]; Leishmania infantum, at 50 µM, 24 h): 23.5% |
| 1.28 | COc1ccc(C(=O)/C=C/c2ccc(OCC(=O)NC3CCCCC3)cc2)cc1 [Compound 4b, (E)-N-Cyclohexyl-2-(4-(3-(4-methoxyphenyl)-3-oxoprop-1-enyl)phenoxy)acetamide] | 505 | 3.4 | 7.02 | 65.1 | 55.2 | no hemolytic activity |  |  | PBMC cytotoxicity versus negative controls (in words) (human PBMCs; 25–100 μM): negligible cytotoxicity; viability at 24 h, 1000 µM ([2]; at 1000 μM, read-out: PBMC viability): 31.8%; viability at 1.56 µM ([3]; Leishmania infantum, at 1.56 µM, 24 h): 85.5%; viability at 3.12 µM ([3]; Leishmania infantum, at 3.12 µM, 24 h): 60.8%; viability at 6.25 µM ([3]; Leishmania infantum, at 6.25 µM, 24 h): 9.12%; viability at 3.12 µM ([4]; Leishmania infantum, at 3.12 µM, 72 h): 79.3%; viability at 6.25 µM ([4]; Leishmania infantum, at 6.25 µM, 72 h): 34.2%; viability at 12.5 µM ([4]; Leishmania infantum, at 12.5 µM, 72 h): 24.3% |
|  | O=C(COc1ccc(/C=C/C(=O)c2ccc(Br)cc2)cc1)NC1CCCCC1 [Compound 4c, (E)-2-(4-(3-(4-Bromophenyl)-3-oxoprop-1-enyl)phenoxy)-N-cyclohexylacetamide] |  |  | 45.8 |  |  |  | 21.93 | 100 | activity against amastigotes (in words) ([3]; 24 h): no detectable activity; also recorded: no inhibitory effect |
